In US9610263B2, “Method of modulating membrane potential of a cell” (VERSITECH LIMITED, priority 2007, dated 2017):
Entries after “also recorded” stand apart in the source; their conditions may differ.

Experiments:
[1] = test system: mouse thoracic aortic rings; assay: Vasorelaxation of aortic rings preconstricted by high-K solution (organ bath); conditions: aortic rings preconstricted by high-K (60 mM K+) solution, n=5, read-out: half-maximal relaxation value IC50
From the text: Example 52 was for investigating whether Example 2 could promote vasorelaxation during vasoconstriction induced by depolarization. Mouse thoracic aortic rings was mounted in an organ bath apparatus and measured their muscular activity.

[2] = Membrane potential of valinomycin-polarized liposomes (safranin O); format: biochemical; conditions: KCl-loaded EYPC-liposomes in KCl/Na2SO4; external addition alone
From the text: The ability of Example 2 to modulate membrane potentials in polarized liposomes was investigated. […] This depolarization process induced by Example 2 may be attributed to the formation of chloride channels by Example 2 that mediate chloride ions flow out of the polarized liposomes to balance the electrostatic potential established by valinomycin.

[3] = test system: Madin-Darby canine kidney (MDCK) cells; assay: Membrane potential of living cells with bis-oxonol (DiBAC4(3)); format: cell-based
From the text: To determine the potential of Example 2 for application in biological and medicinal science, Example 2 was investigated for incorporating into the plasma membranes of living cells and, thereby, modulating their membrane potentials by increasing chloride permeability of the cell membranes. A potential-sensitive dye his-oxonal was used to measure the relative changes in membrane potential of the Madin-Darby canine kidney (MDCK) cells, a model for the renal distal tubule and collecting duct that secrete chloride ions. An increase in fluorescence of bis-oxonal indicated cell depolarization while a decrease indicated hyperpolarization. […] This depolarization effect could be ascribed to that the chloride equilibrium potential (ECl) was higher than the resting membrane potential in MDCK cells. Thus, the opening of chloride channels shifted the membrane potential towards the ECl.
In summary, FIG. 14A-E show the effects of adding different substances, including Example 2, on the membrane potential of Madin-Darby canine kidney (MDCK) cells. Membrane potentials of MDCK cells were monitored by the changes of emission intensity of the potential-sensitive dye bis-oxonol (DiBAC4(3)). The increase in the fluorescence intensity indicates depolarization. […] Each point in FIG. 14A-E represents the mean±s.e. (n=20-80 cells in 4-6 experiments).

With `CCCCCCCCCCCCCCCCCCNC(=O)[C@@H](CC(C)C)ONC(=O)c1cccc(C(=O)NO[C@H](CC(C)C)C(=O)NCCCCCCCCCCCCCCCCCC)c1` [Example 5] as the compound, how does the melting point read?
The melting point was 88 to 90 °C.

With `CC(C)CNC(=O)[C@@H](CC(C)C)ONC(=O)c1cccc(C(=O)NO[C@H](CC(C)C)C(=O)NCC(C)C)c1` [Example 2] as the compound, how does the IC50 [1] read?
Its IC50 is 8.42 ± 0.18 µM.

For `CC(C)[C@@H]1NC(=O)[C@H](C)OC(=O)[C@@H](C(C)C)NC(=O)[C@@H](C(C)C)OC(=O)[C@H](C(C)C)NC(=O)[C@H](C)OC(=O)[C@@H](C(C)C)NC(=O)[C@@H](C(C)C)OC(=O)[C@H](C(C)C)NC(=O)[C@H](C)OC(=O)[C@@H](C(C)C)NC(=O)[C@@H](C(C)C)OC1=O` [valinomycin], which “membrane potential of liposomes” value [2] is on record?
Its value is “polarized the liposome”.

With `CC(C)CNC(=O)[C@@H](CO)ONC(=O)c1cccc(C(=O)NO[C@H](CO)C(=O)NCC(C)C)c1` [Example 36] as the compound, how does the melting point read?
Its melting point is 174 to 176 °C.

With `CC(C)CNC(=O)[C@H](CC(C)C)OC(=O)c1cccc(C(=O)O[C@@H](CC(C)C)C(=O)NCC(C)C)c1` [Example 9] as the compound, how does the melting point read?
The melting point was 137 to 139 °C.

For `CC(C)CNC(=O)[C@@H](CC(C)C)ONC(=O)c1ccccc1` [Example 6], which melting point is on record?
The melting point was 130 to 132 °C.

Which results are given for `O=C(O)c1ccccc1Nc1ccccc1` [DPC, diphenylamine-2-carboxylate]?
membrane potential (bis-oxonol fluorescence) ([3]; 1 mM added alone): hyperpolarization of the membrane potential; depolarization induced by low-chloride extracellular solution ([3]; 60 mM Cl- Ringer's solution in presence of 1 mM blocker): entirely inhibited the depolarization effect; also recorded: did not result in depolarization

Which melting point does the source give for `CC(C)CNC(=O)[C@H](CC(C)C)NC(=O)c1cccc(C(=O)N[C@@H](CC(C)C)C(=O)NCC(C)C)c1` [Example 8] here?
Its melting point is 240 to 242 °C.

For `CC(C)C[C@@H](ONC(=O)c1cccc(C(=O)NO[C@H](CC(C)C)C(=O)OC(C)(C)C)c1)C(=O)OC(C)(C)C` [Example 1], which melting point is on record?
The melting point was 57 to 59 °C.

Which melting point does the source give for `CC(C)CNC(=O)[C@@H](CC(C)C)ONC(=O)c1cccc(C(=O)NO[C@H](CC(C)C)C(=O)NCC(C)C)n1` [Example 7] here?
Its melting point is 175 to 177 °C.

For `CC(C)CNC(=O)[C@@H](Cc1ccccc1)ONC(=O)c1cccc(C(=O)NO[C@H](Cc2ccccc2)C(=O)NCC(C)C)c1` [Example 37], which melting point is on record?
Its melting point is 145 to 148 °C.
